Experimental data reported in the NIST ThermoML archive (doi:10.1016/j.jct.2016.12.030).
Numbers after ± are expanded uncertainties.

details: Crystal; DTA

Normal melting temperature [°C]	SMILES
-95.76 ± 0.5	CCCCCC [hexane]
0.00 ± 0.5	O [water]

SMILES	Normal melting temperature [°C]
[Hg] [mercury]	-38.86 ± 0.5
